Results from US6596756B1, “Treatment of fibromyalgia” (Eli Lilly and Company, priority 1999, dated 2003).
Like-named read-outs stand apart in the source and are kept apart here.

Experiments:
[1] = tested on: mechanical allodynia due to the nerve ligation in rats; conditions: rat; for Allodynia Response: nerve ligation, mean ± SEM, p < 0.05 vs vehicle
Description: All data were analyzed using the JMP statistical program. […] Data were evaluated by one-way analysis of variance (ANOVA) and the appropriate contrasts analyzed by Tukey's test and Dunnett “t” test for two-sided comparisons.

Male Sprague-Dawley rats = conditions: rat; for Ataxia score 80 mins after drug, i.p. / Ataxia score, 30 mins after drug, i.p. / Ataxia Score, 60 mins after drug, p.o. / Ataxia score 110 mins after drug, p.o.: maximum score 40 seconds, mean ± SEM
Description: The tendency of duloxetine to induce ataxia or neuromuscular effects at analgesic doses was investigated using the well-known rotorod test.
(§1) Male Sprague-Dawley rats (200-250 g; Charles River, Portage, Mich.) were maintained at constant temperature and light (12 h light/12 h dark) for 4-7 days prior to the studies. Animals had free access to food and water at all times prior to the day of the experiment.
An automated accelerating rotorod (Omnitech Electronics Inc., Columbus, Ohio) connected to an IBM PC computer was utilized. For training and testing purposes, the rotorod was set up to accelerate to 17 r.p.m. in 5 seconds and maintaining that speed for 40 seconds. Rats were given 3 training trials to learn to maintain posture on the rotorod prior to the actual day of drug testing. The following day, rotorod testing was conducted both at 30 and 80 minutes for i.p. and at 60 and 110 minutes for p.o. following administration of drug or compound.
All data were analyzed using the JMP statistical program. Data are presented as means with standard errors of means (±SEM). Data were evaluated by one-way analysis of variance (ANOVA) and the appropriate contrasts analyzed by Tukey's test and Dunnett “t” test for two-sided comparisons.

[2] = tested on: formalin-induced paw-licking behavior in the rat; conditions: for Early Phase (sum of time spent licking, 0 to 5 minutes) / Late Phase (sum of seconds spent licking, 15 to 40 minutes): mean ± SEM
From the text: (Shibata, M., Ohkubo, T., Takahashi, H., and Inoki, R., “Modified formalin test: Characteristic biphasic pain response,” Pain (1989) 38: 347-352; and Tjolsen, A., Berge, O. G., Hunskaar, S., Rosland, J. H., and Hole, K., “The formalin test: an evaluation of the method,” Pain (1992) 51:5-17.) The effect of duloxetine on formalin-induced paw-licking behavior in the rat was investigated as an index of persistent nociceptive activation. In this test, the injection of formalin under the skin on the dorsal lateral surface of the hind paw of rats causes an immediate and intense increase in the spontaneous activity of C fiber afferents. This activation evokes a distinctly quantifiable behavior indicative of pain, such as licking, flinching, shaking or biting of the injected paw. The behavioral response to formalin is biphasic, with an early phase that is short lived, followed by an extended tonic response or late phase of persistent nociceptive activation. Mechanisms causing the late phase response, such as central sensitization of pain transmitting neurons, are currently believed to contribute to various types of persistent pains.
as §1
The formalin test was performed in custom made Plexiglas® boxes 25×25×20 cm (length×width×height) in size. A mirror placed at the back of the box allowed the unhindered observation of the formalin injected paw. Rats were acclimatized individually in the cubicles at least 1 hour prior to the experiment. All testing was conducted between 08:00 and 14:00 hr and the testing room temperature was maintained at 21-23° C. Test compound was administered 30 or 60 minutes prior to the formalin injection. Formalin (50 μl of a 5% solution in saline) was injected subcutaneously into the dorsal lateral surface of the right hind paw with a 27 gauge needle. Observation started immediately after the formalin injection. Formalin-induced pain was quantified by recording in 5 minute intervals the number of formalin injected paw licking events and the number of seconds each licking event lasted. These recordings were made for 50 minutes after the formalin injection. After the experiment, animals were killed with an overdose of CO2. (Euthanasia protocol, Eli Lilly Animal Use and Care Committee.)
Scoring in the formalin test was performed according to Coderre et al., 1993b and Abbott et al., 1995. (Coderre T. J., Fundytus M. E., McKenna J. E., Dalal S. and Melzack R. “The formalin test: a validation of the weighted-scores method of the behavioral pain rating,” Pain(1993b) 54: 43-50; and Abbott F. V., Franklin K. B. J. and Westbrook R. F. “The formalin test: scoring properties of the first and second phases of the pain response in rats,” Pain (1995) 60: 91-102.) The sum of time spent licking in seconds from time 0 to 5 minutes was considered the early phase while the late phase was taken as the sum of seconds spent licking from 15 to 40 minutes.
Data are presented as means with standard errors of means (±SEM). Data were evaluated by one-way analysis of variance (ANOVA) and the appropriate contrasts analyzed by Tukey's test and Dunnett “t” test for two-sided comparisons.

[3] = 3 mg/kg i.p., 30 min before formalin
[4] = 3 mg/kg p.o., 60 min before formalin

Compound: CNCCC(Oc1cccc2ccccc12)c1cccs1 (stereo not drawn) [duloxetine, N-methyl-3-(1-naphthalenyloxy)-3-(2-thienyl)propanamine]
- effect on allodynia following partial ligation of the sciatic nerve (in words) ([1]; after acute or sub-chronic systemic administration): attenuates the allodynia
- Allodynia Response ([1]; 15 mg/kg i.p., 1 hour pretreatment): 8.57 ± 1.72 g
- Allodynia Response ([1]; 20 mg/kg p.o., 1 hour pretreatment): 8.53 ± 1.66 g
- Allodynia Response ([1]; 20 mg/kg × 4 day p.o., sub-chronic pretreatment (once a day for four consecutive days)): 9.18 ± 2.95 g
- Ataxia score 80 mins after drug, i.p. (Male Sprague-Dawley rats; 3 mg/kg i.p.): 33.35 ± 3.23 s
- Ataxia score, 30 mins after drug, i.p. (Male Sprague-Dawley rats; 3 mg/kg i.p.): 34.27 ± 4.02 s
- Ataxia Score, 60 mins after drug, p.o. (Male Sprague-Dawley rats; 3 mg/kg p.o.): 40.00 ± 0.00 s
- Ataxia score 110 mins after drug, p.o. (Male Sprague-Dawley rats; 3 mg/kg p.o.): 40.00 ± 0.00 s
- Ataxia score 80 mins after drug, i.p. (Male Sprague-Dawley rats; 10 mg/kg i.p.): 26.07 ± 6.24 s
- Ataxia score, 30 mins after drug, i.p. (Male Sprague-Dawley rats; 10 mg/kg i.p.): 29.42 ± 6.71 s
- Ataxia Score, 60 mins after drug, p.o. (Male Sprague-Dawley rats; 10 mg/kg p.o.): 39.11 ± 0.89 s
- Ataxia score 110 mins after drug, p.o. (Male Sprague-Dawley rats; 10 mg/kg p.o.): 39.56 ± 0.44 s
- Ataxia Score, 60 mins after drug, p.o. (Male Sprague-Dawley rats; 20 mg/kg p.o.): 40.00 ± 0.00 s
- Ataxia score 110 mins after drug, p.o. (Male Sprague-Dawley rats; 20 mg/kg p.o.): 40.00 ± 0.00 s
- Ataxia score 80 mins after drug, i.p. (Male Sprague-Dawley rats; 30 mg/kg i.p.): 25.52 ± 5.89 s
- Ataxia score, 30 mins after drug, i.p. (Male Sprague-Dawley rats; 30 mg/kg i.p.): 24.75 ± 6.88 s
- ataxia or neuromuscular effects in the rotorod test (in words) (Male Sprague-Dawley rats; at doses that caused analgesia): did not show ataxia or neuromuscular effects
- Early Phase (sum of time spent licking, 0 to 5 minutes) [2, 3]: 32.78 ± 15.97 s
- Late Phase (sum of seconds spent licking, 15 to 40 minutes) [2, 3]: 254.00 ± 45.87 s
- Early Phase (sum of time spent licking, 0 to 5 minutes) [2, 4]: 21.78 ± 5.14 s
- Late Phase (sum of seconds spent licking, 15 to 40 minutes) [2, 4]: 393.56 ± 26.74 s
- Early Phase (sum of time spent licking, 0 to 5 minutes) ([2]; 10 mg/kg i.p., 30 min before formalin): 17.00 ± 5.83 s
- Late Phase (sum of seconds spent licking, 15 to 40 minutes) ([2]; 10 mg/kg i.p., 30 min before formalin, p < 0.05 vs vehicle): 163.89 ± 54.14 s
- Early Phase (sum of time spent licking, 0 to 5 minutes) ([2]; 10 mg/kg p.o., 60 min before formalin): 20.22 ± 5.29 s
- Late Phase (sum of seconds spent licking, 15 to 40 minutes) ([2]; 10 mg/kg p.o., 60 min before formalin, p < 0.05 vs vehicle): 255.78 ± 38.22 s
- Early Phase (sum of time spent licking, 0 to 5 minutes) ([2]; 15 mg/kg i.p., 30 min before formalin): 29.56 ± 16.30 s
- Late Phase (sum of seconds spent licking, 15 to 40 minutes) ([2]; 15 mg/kg i.p., 30 min before formalin, p < 0.05 vs vehicle): 80.44 ± 36.22 s
- Early Phase (sum of time spent licking, 0 to 5 minutes) ([2]; 20 mg/kg p.o., 60 min before formalin): 12.67 ± 3.61 s
- Late Phase (sum of seconds spent licking, 15 to 40 minutes) ([2]; 20 mg/kg p.o., 60 min before formalin, p < 0.05 vs vehicle): 161.11 ± 31.77 s
- effect on late phase response to formalin (in words) ([2]; i.p. and p.o. dosing): blocks the late phase response to formalin in a dose-dependent manner
